Read-outs that look alike come from different tables or passages of the source.
Biological target: T1, HCMV polymerase (Human cytomegalovirus, UniProt P08546)
T1 construct: made in house; host or cells: recombinant baculovirus-infected SF-9 cells
Experiment: HCMV polymerase scintillation proximity assay (SPA), modified version
Format: biochemical
Details: compounds in 100% DMSO
Procedure, shortened: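 SPA measuring 3H-dTTP (90 nM) incorporation on 6 nM biotinylated poly(dA)-oligo(dT) by SF-9-expressed enzyme, pH 7.5 HEPES/KCl/MgCl2/BSA buffer with or without 2 mM CHAPS. Run at 25° C or 37° C, stopped with EDTA while linear (HCMV 30 min); IC50 from linear regression. Modified format adds 4.5 mM DTT, compounds diluted in 100% DMSO.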

[1] = CMV polymerase, Table 1, modified assay with 4.5 mM DTT, read-out: Antiviral Selective Polymerase IC50 Values, CMV
[2] = Antiviral Selective Polymerase IC50 Values, CMV, Table 1, modified assay with 4.5 mM DTT

T1 sequence (P08546 whole entry): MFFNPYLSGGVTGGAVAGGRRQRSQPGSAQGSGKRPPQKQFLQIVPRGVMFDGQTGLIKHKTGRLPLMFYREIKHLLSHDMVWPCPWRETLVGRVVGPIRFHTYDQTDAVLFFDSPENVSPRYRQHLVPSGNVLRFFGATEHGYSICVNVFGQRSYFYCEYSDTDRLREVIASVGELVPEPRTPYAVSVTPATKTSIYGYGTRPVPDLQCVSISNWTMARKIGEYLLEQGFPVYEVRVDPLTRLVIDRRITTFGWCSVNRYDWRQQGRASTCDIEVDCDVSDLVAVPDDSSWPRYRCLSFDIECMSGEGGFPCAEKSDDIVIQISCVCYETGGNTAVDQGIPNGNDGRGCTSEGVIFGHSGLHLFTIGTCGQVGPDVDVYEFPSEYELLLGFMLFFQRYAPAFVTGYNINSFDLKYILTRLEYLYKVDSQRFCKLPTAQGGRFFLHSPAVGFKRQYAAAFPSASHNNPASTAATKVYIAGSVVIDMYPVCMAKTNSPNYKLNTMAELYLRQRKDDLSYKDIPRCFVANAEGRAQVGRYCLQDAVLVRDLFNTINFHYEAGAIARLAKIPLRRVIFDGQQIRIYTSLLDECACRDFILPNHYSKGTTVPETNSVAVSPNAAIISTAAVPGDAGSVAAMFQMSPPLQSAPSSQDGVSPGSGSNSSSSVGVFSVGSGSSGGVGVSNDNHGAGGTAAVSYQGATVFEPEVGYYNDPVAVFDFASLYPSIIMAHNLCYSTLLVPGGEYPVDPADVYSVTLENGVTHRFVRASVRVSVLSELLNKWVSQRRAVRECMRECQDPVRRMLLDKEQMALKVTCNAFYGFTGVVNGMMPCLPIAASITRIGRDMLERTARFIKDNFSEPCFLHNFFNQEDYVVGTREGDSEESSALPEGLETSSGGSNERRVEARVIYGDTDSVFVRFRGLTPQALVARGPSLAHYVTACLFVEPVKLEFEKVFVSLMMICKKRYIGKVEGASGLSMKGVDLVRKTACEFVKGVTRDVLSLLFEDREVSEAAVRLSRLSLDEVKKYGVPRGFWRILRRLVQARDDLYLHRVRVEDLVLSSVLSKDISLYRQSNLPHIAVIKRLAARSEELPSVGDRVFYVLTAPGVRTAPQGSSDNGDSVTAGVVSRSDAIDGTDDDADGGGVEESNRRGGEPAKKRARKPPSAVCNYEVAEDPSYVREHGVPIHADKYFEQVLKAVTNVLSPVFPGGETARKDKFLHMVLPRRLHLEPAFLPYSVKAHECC

| IC50 [1] [µM] | SMILES | IC50 [2] [µM] |
| --- | --- | --- |
| 15.2 | O=C(NCc1ccc(Cl)cc1)c1cnc2c(F)cc(S(=O)(=O)NCCc3ccccn3)cc2c1O [Example 217, N-(4-chlorobenzyl)-8-fluoro-4-hydroxy-6-({[2-(2-pyridinyl)ethyl]amino}sulfonyl)-3-quinolinecarboxamide] |  |
| 17.6 | O=C(NCc1ccc(Cl)cc1)c1cnc2c(F)cc(S(=O)(=O)NCc3cccnc3)cc2c1O [Example 218, N-(4-chlorobenzyl)-8-fluoro-4-hydroxy-6-{[(3-pyridinylmethyl)amino]sulfonyl}-3-quinolinecarboxamide] |  |
| 11 | O=C(NCc1ccc(Cl)cc1)c1cnc2c(F)cc(S(=O)(=O)NCc3ccncc3)cc2c1O [Example 219, N-(4-chlorobenzyl)-8-fluoro-4-hydroxy-6-{[(4-pyridinylmethyl)amino]sulfonyl}-3-quinolinecarboxamide] |  |
| 10.7 | O=C(NCc1ccc(Cl)cc1)c1cnc2c(F)cc(S(=O)(=O)NCc3ccc(Cl)cc3)cc2c1O [Example 220, N-(4-chlorobenzyl)-6-{[(4-chlorobenzyl)amino]sulfonyl}-8-fluoro-4-hydroxy-3-quinolinecarboxamide] |  |
| 12.5 | COc1ccc(CNS(=O)(=O)c2cc(F)c3ncc(C(=O)NCc4ccc(Cl)cc4)c(O)c3c2)cc1 [Example 221, N-(4-chlorobenzyl)-8-fluoro-4-hydroxy-6-{[(4-methoxybenzyl)amino]sulfonyl}-3-quinolinecarboxamide] |  |
| 11.5 | CC(C)(C)CNS(=O)(=O)c1cc(F)c2ncc(C(=O)NCc3ccc(Cl)cc3)c(O)c2c1 [Example 222, N-(4-chlorobenzyl)-8-fluoro-4-hydroxy-6-[(neopentylamino)sulfonyl]-3-quinolinecarboxamide] |  |
| 14.5 | CC(O)CNS(=O)(=O)c1cc(F)c2ncc(C(=O)NCc3ccc(Cl)cc3)c(O)c2c1 (stereo not shown) [Example 223, N-(4-chlorobenzyl)-8-fluoro-4-hydroxy-6-{[(2-hydroxypropyl)amino]sulfonyl}-3-quinolinecarboxamide] |  |
| 21.6 | O=C(NCc1ccc(Cl)cc1)c1cnc2c(F)cc(S(=O)(=O)NCC(O)CO)cc2c1O (stereo not shown) [Example 224, N-(4-chlorobenzyl)-6-{[(2,3-dihydroxypropyl)amino]sulfonyl}-8-fluoro-4-hydroxy-3-quinolinecarboxamide] |  |
| 8.5 | O=C(NCc1ccc(Cl)cc1)c1cnc2c(F)cc(S(=O)(=O)NCC(c3ccccc3)c3ccccc3)cc2c1O [Example 225, N-(4-chlorobenzyl)-6-{[(2,2-diphenylethyl)amino]sulfonyl}-8-fluoro-4-hydroxy-3-quinolinecarboxamide] |  |
| 18.5 | O=C(O)CCCCCCCCCCNS(=O)(=O)c1cc(F)c2ncc(C(=O)NCc3ccc(Cl)cc3)c(O)c2c1 [Example 226, 11-{[(3-{[(4-chlorobenzyl)amino]carbonyl}-8-fluoro-4-hydroxy-6-quinolinyl)sulfonyl]amino}undecanoic acid] |  |
| 26.7 | CC(=O)NCCNS(=O)(=O)c1cc(F)c2ncc(C(=O)NCc3ccc(Cl)cc3)c(O)c2c1 [Example 227, 6-({[2-(acetylamino)ethyl]amino}sulfonyl)-N-(4-chlorobenzyl)-8-fluoro-4-hydroxy-3-quinolinecarboxamide] |  |
| 44.3 | O=C(NCc1ccc(Cl)cc1)c1cnc2c(F)cc(S(=O)(=O)NCCOCCO)cc2c1O [Example 228, N-(4-chlorobenzyl)-8-fluoro-4-hydroxy-6-({[2-(2-hydroxyethoxy)ethyl]amino}sulfonyl)-3-quinolinecarboxamide] |  |
| 10.7 | O=C(NCc1ccc(Cl)cc1)c1cnc2c(F)cc(S(=O)(=O)NCCO)cc2c1O [Example 229, N-(4-chlorobenzyl)-8-fluoro-4-hydroxy-6-{[(2-hydroxyethyl)amino]sulfonyl}-3-quinolinecarboxamide] |  |
| 9.6 | O=C(NCc1ccc(Cl)cc1)c1cnc2c(F)cc(S(=O)(=O)NCCc3ccccc3)cc2c1O [Example 230, N-(4-chlorobenzyl)-8-fluoro-4-hydroxy-6-[(phenethylamino)sulfonyl]-3-quinolinecarboxamide] |  |
| 8.3 | O=C(NCc1ccc(Cl)cc1)c1cnc2c(F)cc(S(=O)(=O)NCCc3ccc(Cl)cc3)cc2c1O [Example 231, N-(4-chlorobenzyl)-6-{[(4-chlorophenethyl)amino]sulfonyl}-8-fluoro-4-hydroxy-3-quinolinecarboxamide] |  |
| 23.4 | C#CCNS(=O)(=O)c1cc(F)c2ncc(C(=O)NCc3ccc(Cl)cc3)c(O)c2c1 [Example 232, N-(4-chlorobenzyl)-8-fluoro-4-hydroxy-6-[(2-propynylamino)sulfonyl]-3-quinolinecarboxamide] |  |
| 11.2 | CC(C)CCNS(=O)(=O)c1cc(F)c2ncc(C(=O)NCc3ccc(Cl)cc3)c(O)c2c1 [Example 233, N-(4-chlorobenzyl)-8-fluoro-4-hydroxy-6-[(isopentylamino)sulfonyl]-3-quinolinecarboxamide] |  |

| IC50 [1] [µM] | SMILES | IC50 [2] [µM] |
| --- | --- | --- |
| 8.9 | O=C(NCc1ccc(Cl)cc1)c1cnc2c(F)cc(S(=O)(=O)NCCCc3ccccc3)cc2c1O [Example 234, N-(4-chlorobenzyl)-8-fluoro-4-hydroxy-6-{[(3-phenylpropyl)amino]sulfonyl}-3-quinolinecarboxamide] |  |
| 11.8 | CCCCCNS(=O)(=O)c1cc(F)c2ncc(C(=O)NCc3ccc(Cl)cc3)c(O)c2c1 [Example 235, N-(4-chlorobenzyl)-8-fluoro-4-hydroxy-6-[(pentylamino)sulfonyl]-3-quinolinecarboxamide] |  |
| 6.6 | O=C(NCc1ccc(Cl)cc1)c1cnc2c(F)cc(S(=O)(=O)NCc3cc(C(F)(F)F)cc(C(F)(F)F)c3)cc2c1O [Example 236, 6-({[3,5-bis(trifluoromethyl)benzyl]amino}sulfonyl)-N-(4-chlorobenzyl)-8-fluoro-4-hydroxy-3-quinolinecarboxamide] |  |
| 6.9 | O=C(NCc1ccc(Cl)cc1)c1cnc2c(F)cc(S(=O)(=O)NCCC3=CCCCC3)cc2c1O [Example 237, N-(4-chlorobenzyl)-6-({[2-(1-cyclohexen-1-yl)ethyl]amino}-sulfonyl)-8-fluoro-4-hydroxy-3-quinolinecarboxamide] |  |
| 1.6 | O=C(NCc1ccc(Cl)cc1)c1cnc2c(F)cc(S(=O)(=O)NCCNc3cccc4ccccc34)cc2c1O [Example 238, N-(4-chlorobenzyl)-8-fluoro-4-hydroxy-6-({[2-(1-naphthylamino)ethyl]amino}sulfonyl)-3-quinolinecarboxamide] |  |
| 13.1 | CNS(=O)(=O)c1cc(F)c2ncc(C(=O)NCc3ccc(Cl)cc3)c(O)c2c1 [Example 239, N-(4-chlorobenzyl)-8-fluoro-4-hydroxy-6-[(methylamino)sulfonyl]-3-quinolinecarboxamide] |  |
| 11.4 | N#CCNS(=O)(=O)c1cc(F)c2ncc(C(=O)NCc3ccc(Cl)cc3)c(O)c2c1 [Example 240, N-(4-chlorobenzyl)-6-{[(cyanomethyl)amino]sulfonyl}-8-fluoro-4-hydroxy-3-quinolinecarboxamide] |  |
| 16 | COc1ccc(CNS(=O)(=O)c2cc(F)c3ncc(C(=O)NCc4ccc(Cl)cc4)c(O)c3c2)c(OC)c1 [Example 241, N-(4-chlorobenzyl)-6-{[(2,4-dimethoxybenzyl)amino]sulfonyl}-8-fluoro-4-hydroxy-3-quinolinecarboxamide] |  |
| 8.4 | O=C(NCc1ccc(Cl)cc1)c1cnc2c(F)cc(S(=O)(=O)NCc3cccc(I)c3)cc2c1O [Example 242, N-(4-chlorobenzyl)-8-fluoro-4-hydroxy-6-{[(3-iodobenzyl)amino]sulfonyl}-3-quinolinecarboxamide] |  |
| 15.5 | O=C(NCc1ccc(Cl)cc1)c1cnc2c(F)cc(S(=O)(=O)NCC(F)(F)F)cc2c1O [Example 243, N-(4-chlorobenzyl)-8-fluoro-4-hydroxy-6-{[(2,2,2-trifluoroethyl)amino]sulfonyl}-3-quinolinecarboxamide] |  |
|  | O=C(NCc1ccc(Cl)cc1)c1cnc2c(F)cc(S(=O)(=O)NCCBr)cc2c1O [Example 244, 6-{[(2-bromoethyl)amino]sulfonyl}-N-(4-chlorobenzyl)-8-fluoro-4-hydroxy-3-quinolinecarboxamide] | 19 |
|  | O=C(NCc1ccc(Cl)cc1)c1cnc2c(F)cc(S(=O)(=O)NCCCl)cc2c1O [Example 245, N-(4-chlorobenzyl)-6-{[(2-chloroethyl)amino]sulfonyl}-8-fluoro-4-hydroxy-3-quinolinecarboxamide] | 13.3 |
| 8.6 | O=C(NCc1ccc(Cl)cc1)c1cnc2c(F)cc(S(=O)(=O)NCCc3ccc(O)c(O)c3)cc2c1O [Example 246, N-(4-chlorobenzyl)-6-{[(3,4-dihydroxyphenethyl)amino]-sulfonyl}-8-fluoro-4-hydroxy-3-quinolinecarboxamide] |  |
| 10.2 | CCSCCNS(=O)(=O)c1cc(F)c2ncc(C(=O)NCc3ccc(Cl)cc3)c(O)c2c1 [Example 247] |  |
| 11.6 | O=C(NCc1ccc(Cl)cc1)c1cnc2c(F)cc(S(=O)(=O)NCCCBr)cc2c1O [Example 248, 6-{[(3-bromopropyl)amino]sulfonyl}-N-(4-chlorobenzyl)-8-fluoro-4-hydroxy-3-quinolinecarboxamide] |  |
| 7.6 | NS(=O)(=O)c1ccc(CNS(=O)(=O)c2cc(F)c3ncc(C(=O)NCc4ccc(Cl)cc4)c(O)c3c2)cc1 [Example 249, 6-({[4-(aminosulfonyl)benzyl]amino}sulfonyl)-N-(4-chlorobenzyl)-8-fluoro-4-hydroxy-3-quinolinecarboxamide] |  |
| 45.2 | O=C(NCc1ccc(Cl)cc1)c1cnc2c(F)cc(S(=O)(=O)NCCN(CCO)CCO)cc2c1O [Example 250, 6-[({2-[bis(2-hydroxyethyl)amino]ethyl}amino)sulfonyl]-N-(4-chlorobenzyl)-8-fluoro-4-hydroxy-3-quinolinecarboxamide] |  |
